Measured values as given in patent publication US6651382B1, “Method for preventing the release of gramineous plant pollens” (National Agricultural Research Organization, priority 1999, dated 2003).

Test system: flowering barley line derived from a barley line "Satsuki-Nijo"
Assay: Flowering inhibition test on harvested unflowered barley ears treated with reagent solution
Format: in vivo
Procedure: A flowering barley line derived from a barley line “Satsuki-Nijo” was conventionally cultivated in the fields. At the earing time, unflowered ears immediately after earing were harvested. Each group of three ears was then treated with 10 cc reagent solution containing 1-100 ppm methyl jasmonate as a jasmonic acid derivative in an artificial climate chamber under the following conditions: in the light having a brightness of 120 […] for 14 hours at 25° C.; and in the dark for 10 hours at 15° C.
Flowered ears were transferred to a culture medium for cuttings and cultivated for about 20 days. The number of anthers remaining in a glumaceous flower after self-pollination was measured and used as a control.

[1] = Table 2 (repeated test), reagent concentration 1 ppm
[2] = Table 2 (repeated test), reagent concentration 10 ppm
[3] = Table 2 (repeated test), reagent concentration 100 ppm

## CC/C=C\CC1C(=O)CCC1CC(=O)OC (stereo not drawn) [Methyl jasmonate, methyl jasmonate]
Table 1, reagent concentration 1 ppm, after self-pollination
  Number of remaining anthers per one glumaceous flower: 0.7
Table 1, reagent concentration 1 ppm, group of three ears, 10 cc solution
  Number of flowered ears on the 6th day: 3
Table 1, reagent concentration 10 ppm, after self-pollination
  Number of remaining anthers per one glumaceous flower: 1.7
Table 1, reagent concentration 10 ppm, after self-pollination, listed as methyl jasmonate
  Number of remaining anthers per one glumaceous flower: more anthers than non-treated ears
Table 1, reagent concentration 10 ppm, group of three ears, 10 cc solution
  Number of flowered ears on the 6th day: 3
Table 1, reagent concentration 100 ppm, after self-pollination
  Number of remaining anthers per one glumaceous flower: 2.1
Table 1, reagent concentration 100 ppm, after self-pollination, listed as methyl jasmonate
  Number of remaining anthers per one glumaceous flower: many more remaining anthers
Table 1, reagent concentration 100 ppm, group of three ears, 10 cc solution
  Number of flowered ears on the 6th day: 0
Table 1, reagent concentration 100 ppm, group of three ears, 10 cc solution, listed as methyl jasmonate
  Number of flowered ears on the 6th day: no flowering was observed
[1]
  Number of flowered ears on the 6th day: 3
  Number of remaining anthers per one glumaceous flower: 1.1
[2]
  Number of flowered ears on the 6th day: 3
  Number of remaining anthers per one glumaceous flower: 1.7
[3]
  Number of flowered ears on the 6th day: 0
  Number of remaining anthers per one glumaceous flower: 2.6
